Consider eight compounds from PMC8230303, “Coumarin-Based Triapine Derivatives and Their Copper(II) Complexes: Synthesis, Cytotoxicity and mR2 RNR Inhibition Activity” (Biomolecules, 2021).

Details of data set [1]: method as in doi:10.1002/ejic.200901174. Particulars: copper(II) complex of the named ligand; cited from earlier work.
The test system of a further data set is COLO-320 cells. In words: Inhibition of cell viability, colorimetric MTT assay. Conditions: for IC50: Homo sapiens, COLO 320, MTT assay, 72 h exposure, mean ± SD. The class given is cell-based, human. Here is the method:
(§1) Human breast adenocarcinoma cells MDA-MB-231, sensitive COLO-205 and multidrug resistant COLO-320 colorectal adenocarcinoma cells and normal human lung fibroblasts MRC-5 were obtained from ATCC. COLO-205 and COLO-320 cells were cultured in RPMI-1640 medium containing 10% foetal bovine serum, MRC-5 cells were cultured in EMEM medium containing 10% foetal bovine serum. MDA-MB-231 cells were cultured in DMEM/high glucose medium containing 10% FBS. Adherent MDA-MB-231 cells were grown in Falcon tissue culture 75 cm^2 flasks and all other cells were grown in tissue culture 25 cm^2 flasks (BD Biosciences, Singapore). All cell lines were grown at 37 °C in a humidified atmosphere of 95% air and 5% CO2. The stock solutions of copper(II) complexes were prepared in DMSO.
(§2) The cytotoxicity of the compounds was determined by colorimetric MTT assay. The cells were harvested from culture flasks by trypsinisation and seeded into Cellstar 96-well microculture plates at the seeding density of 6000 cells per well (6 × 10^4 cells/mL, MDA-MB-231) or 10,000 cells per well (1× 10^5 cells/mL cells/mL, COLO-205, COLO-320 and MRC-5). The cells were allowed to resume exponential growth for 24 h, and subsequently were exposed to drugs at different concentrations in media for 72 h. The drugs were diluted in complete medium at the desired concentration and added to each well (100 µL) and serially diluted to other wells. After exposure for 72 h, the media were replaced with MTT in media (5 mg/mL, 100 µL) and incubated for additional 50 min. Subsequently, the media were aspirated and the purple formazan crystals formed in viable cells were dissolved in DMSO (100 µL). Optical densities were measured at 570 nm using the BioTek H1 Synergy (BioTek, Singapore) microplate reader. The quantity of viable cells was expressed in terms of treated/control (T/C) values in comparison to untreated control cells, and 50% inhibitory concentrations (IC50) were calculated from concentration-effect curves by interpolation. Evaluation was based on at least three independent experiments, each comprising six replicates per concentration level.

A further data set deals with MRC-5 cells. The description is as above. The format is cell-based. Conditions: Homo sapiens, MRC5, healthy lung fibroblasts, 72 h exposure, mean ± SD. Here is the method:
as §1, §2

The test system of the next data set is COLO-205 cells. The data set is described as above. The format is cell-based. Conditions: Homo sapiens, 72 h exposure, mean ± SD. The protocol:
as §1, §2

Data set [2] deals with MDA-MB-231 cells. Described as above. The format is cell-based. Conditions: Homo sapiens, 72 h exposure, mean ± SD. Here is the method: as §1, §2
In data set [3] the test system is MDA-MB-231 cells. Also noted: method as in PMID 30384010. Conditions: cited from earlier work.
In the next data set the target is T1, mouse R2 RNR protein (Mus musculus, UniProt P11157).
T1 construct: mR2 protein was expressed, purified, and iron-reconstituted as described previously; made in house
T1 sequence (P11157 1-390): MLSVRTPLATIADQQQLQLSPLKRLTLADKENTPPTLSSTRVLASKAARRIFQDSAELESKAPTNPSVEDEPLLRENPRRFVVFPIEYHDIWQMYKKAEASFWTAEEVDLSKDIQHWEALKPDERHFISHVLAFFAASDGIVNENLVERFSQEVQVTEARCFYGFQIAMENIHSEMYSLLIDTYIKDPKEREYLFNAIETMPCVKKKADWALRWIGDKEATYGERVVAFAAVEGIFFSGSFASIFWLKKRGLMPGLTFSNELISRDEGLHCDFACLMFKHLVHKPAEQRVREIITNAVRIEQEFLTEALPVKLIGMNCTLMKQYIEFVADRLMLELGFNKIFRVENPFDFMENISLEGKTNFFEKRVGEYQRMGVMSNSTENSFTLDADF
Further details: method as in PMID 32961653. Conditions: in 3 min; cited from earlier work.

Read-outs that look alike come from different tables or passages of the source. Where only a bound is given, the exact number is not on record here.

Consider `CN(C)C(=S)NN=Cc1ncccc1N` [APTSC, 3-aminopyridine-2-carboxaldehyde 4N-dimethylthiosemicarbazone], for which, in data set [1], the “logβ[CuL]+” value was 13.95(2).
For `COc1cccc2c1C(=O)c1c(O)c3c(c(O)c1C2=O)C[C@@](O)(C(=O)CO)C[C@@H]3O[C@H]1C[C@H](N)[C@H](O)[C@H](C)O1` [Doxorubicin, reference compound], the IC50 in the data set on COLO-320 cells worked out at 3.1 µM; with MRC-5 cells it was 5.2 µM; with COLO-205 cells, 3.3 µM.
For `CN(C)C(=S)NN=Cc1cc(COc2ccc3cc(C(=O)N4CCN(Cc5ccnc(C=NNC(=S)N(C)C)c5)CC4)c(=O)oc3c2)ccn1` [H2L^4, 2-((4-((4-(7-((2-((2-(dimethylcarbamothioyl)hydrazineylidene)methyl)pyridin-4-yl)methoxy)-2-oxo-2H-chromene-3-carbonyl)piperazin-1-yl)methyl)pyridin-2-yl)methylene)-N,N-dimethylhydrazine-1-carbothioamide], the IC50 with COLO-320 cells worked out at 4.6 ± 0.3 µM; with MDA-MB-231 cells [2] it was 3 ± 0.3 µM; in the data set with MRC-5 cells, 4 ± 0.3 µM; in the data set with COLO-205 cells, 4.4 ± 0.7 µM. In the data set on COLO-320 cells (IC50(MRC-5)/IC50(COLO-320)), the SF worked out at 0.9.
For the compound `CN(C)C(=S)NN=Cc1cc(CN2CCN(C(=O)c3cc4ccc(O)cc4oc3=O)CC2)ccn1` [HL^1, 2-((4-((4-(7-Hydroxy-2-oxo-2H-chromene-3-carbonyl)piperazin-1-yl)methyl)pyridin-2-yl)methylene)-N,N-dimethylhydrazine-1-carbothioamide], the half-maximal inhibitory concentration (IC50) with COLO-320 cells was determined as 6.7 ± 0.9 µM; in the data set with MDA-MB-231 cells [2], 4.8 ± 1.3 µM; in the data set on MRC-5 cells, 41 ± 1 µM; in the data set on COLO-205 cells, 9.2 ± 0.1 µM.
The like results for `O=C(c1cc2ccc(O)cc2oc1=O)N1CCN(Cc2ccnc(C=NNC(=S)Nc3ccccc3)c2)CC1` [HL^2, 2-((4-((4-(7-Hydroxy-2-oxo-2H-chromene-3-carbonyl)piperazin-1-yl)methyl)pyridin-2-yl)methylene)-N-phenylhydrazine-1-carbothioamide] were, in that order, 83 ± 7 µM, 18 ± 4 µM, 54 ± 5 µM and 89 ± 6 µM.
For `Cc1cc(NCNN=Cc2cc(CN3CCN(C(=O)c4cc5ccc(O)cc5oc4=O)CC3)ccn2)cc(C)c1O` [HL^3, 7-Hydroxy-3-(4-((2-((2-(((4-hydroxy-3,5-dimethylphenyl)amino)methyl)hydrazineylidene)-methyl)pyridin-4-yl)methyl)piperazine-1-carbonyl)-2H-chromen-2-one], the IC50 in the data set on COLO-320 cells is 90 ± 10 µM; in the data set on MDA-MB-231 cells [2], 11 ± 1 µM; in the data set on MRC-5 cells, more than 100 µM; with COLO-205 cells it was 76 ± 8 µM.
As for `CN(C)C(=S)NN=Cc1ccccn1` [PTSC, pyridine-2-carboxaldehyde 4N-dimethylthiosemicarbazone], the “logβ[CuL]+” value in data set [1] is recorded as 13.57(2).
Take `NC(=S)NN=Cc1ncccc1N` [Triapine, 3-aminopyridine-2-carboxaldehyde thiosemicarbazone]: the “logβ[CuL]+” value in data set [1] is reported as 13.89(3). Further, in the data set on MDA-MB-231 cells [3], the IC50 is 1.5 ± 1.1 µM. The tyrosyl radical reduction on mouse R2 RNR protein is 100%.
